From PubChem BioAssay AID330 (DTP/NCI, 2004)
Where “and” joins values, the source holds several entries; their conditions need not be identical. Identical values can stand only once. Inconclusive results and toxic doses are left out.

Test system: P388 leukemia ip, CD2F1 mice, survival T/C
Assay: NCI In Vivo Anticancer Drug Screen. Data for tumor model P388 Leukemia (intraperitoneal) in CD2F1 (CDF1) mice
Conditions: endpoint: median survival time, higher = longer survival
Procedure, shortened: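 Mice carrying the transplanted tumor received test compound or vehicle. Survival was recorded in each group, and the value is the treated-group measurement divided by that of the vehicle-treated control group.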

[1] = dose: 50.0 mg/kg/injection, schedule: Q01DX005 (ip), vehicle: saline with Tween-80
[2] = dose: 60.0 mg/kg/injection, schedule: Q01DX005 (ip), vehicle: saline with Tween-80
[3] = dose: 120.0 mg/kg/injection, schedule: Q01DX005 (ip), vehicle: saline with Tween-80
[4] = dose: 240.0 mg/kg/injection, schedule: Q01DX005 (ip), vehicle: saline with Tween-80
[5] = dose: 50.0 mg/kg/injection, schedule: Q01DX005 (ip), vehicle: saline
[6] = dose: 100.0 mg/kg/injection, schedule: Q01DX005 (ip), vehicle: saline
[7] = dose: 200.0 mg/kg/injection, schedule: Q01DX005 (ip), vehicle: saline
[8] = dose: 60.0 mg/kg/injection, schedule: Q01DX005 (ip), vehicle: Klucel (hydroxypropylcellulose) (HPC)
[9] = dose: 120.0 mg/kg/injection, schedule: Q01DX005 (ip), vehicle: Klucel (hydroxypropylcellulose) (HPC)
[10] = dose: 240.0 mg/kg/injection, schedule: Q01DX005 (ip), vehicle: Klucel (hydroxypropylcellulose) (HPC)
[11] = dose: 50.0 mg/kg/injection, schedule: Q01DX009 (ip), vehicle: Klucel (hydroxypropylcellulose) (HPC)
[12] = dose: 100.0 mg/kg/injection, schedule: Q04DX003 (ip), vehicle: saline with Tween-80
[13] = dose: 50.0 mg/kg/injection, schedule: Q01DX009 (ip), vehicle: saline with Tween-80
[14] = dose: 100.0 mg/kg/injection, schedule: Q01DX009 (ip), vehicle: saline with Tween-80
[15] = dose: 200.0 mg/kg/injection, schedule: Q01DX009 (ip), vehicle: saline with Tween-80
[16] = dose: 400.0 mg/kg/injection, schedule: Q01DX009 (ip), vehicle: saline with Tween-80
[17] = dose: 50.0 mg/kg/injection, schedule: Q01DX005 (ip), vehicle: Klucel + Tween-80
[18] = dose: 100.0 mg/kg/injection, schedule: Q01DX005 (ip), vehicle: Klucel + Tween-80
[19] = dose: 200.0 mg/kg/injection, schedule: Q01DX005 (ip), vehicle: Klucel + Tween-80

Cc1ccc(S(=O)(=O)OC2CCN(C)CC2)cc1
T/C (dose: 25.0 mg/kg/injection, schedule: Q04DX003 (ip), vehicle: saline): 113 % of control
T/C (dose: 50.0 mg/kg/injection, schedule: Q04DX003 (ip), vehicle: saline): 102 % of control
T/C (dose: 100.0 mg/kg/injection, schedule: Q04DX003 (ip), vehicle: saline): 99 % of control
T/C (dose: 200.0 mg/kg/injection, schedule: Q04DX003 (ip), vehicle: saline): 104 % of control

CCCSc1nn2cc(NC(=O)OC)nc2s1
T/C [1]: 97 % of control
T/C (dose: 100.0 mg/kg/injection, schedule: Q01DX005 (ip), vehicle: saline with Tween-80): 100 % of control
T/C (dose: 200.0 mg/kg/injection, schedule: Q01DX005 (ip), vehicle: saline with Tween-80): 103 % of control

Nc1nc(N)nc(CNc2c(Br)cc(Br)cc2Br)n1
T/C [2]: 93 % of control
T/C [3]: 101 % of control
T/C [4]: 90 % of control

OC1(c2ccccc2)C(c2ccccc2)=C(c2ccccc2)C(c2ccc(CCCCCCCCc3ccc(C4=C(c5ccccc5)C(O)(c5ccccc5)C(c5ccccc5)=C4c4ccccc4)cc3)cc2)=C1c1ccccc1 (configuration not stated)
T/C (dose: 100.0 mg/kg/injection, schedule: Q01DX001 (ip), vehicle: Klucel (hydroxypropylcellulose) (HPC)): 86 % of control
T/C (dose: 200.0 mg/kg/injection, schedule: Q01DX001 (ip), vehicle: Klucel (hydroxypropylcellulose) (HPC)): 89 % of control

CCN(CC)CCOC(=O)C(C)Oc1c2ccoc2c(OC)c2oc(C)cc(=O)c12 (configuration not stated)
T/C [5]: 102 % of control
T/C [6]: 106 % of control
T/C [7]: 101 % of control

Cc1ccc2c(c1)Pc1cc(C)ccc1S2
T/C [8]: 109 % of control
T/C [9]: 101 % of control
T/C [10]: 104 % of control

COc1cc(Cc2nccc3cc(OC)c(OC)cc23)c(C(C)=O)cc1OC
T/C (dose: 3.13 mg/kg/injection, schedule: Q01DX009 (ip), vehicle: saline sonified): 123 % of control
T/C (dose: 12.5 mg/kg/injection, schedule: Q01DX009 (ip), vehicle: Klucel (hydroxypropylcellulose) (HPC)): 105 % of control
T/C (dose: 12.5 mg/kg/injection, schedule: Q01DX009 (ip), vehicle: saline sonified): 161 % of control
T/C (dose: 25.0 mg/kg/injection, schedule: Q01DX009 (ip), vehicle: Klucel (hydroxypropylcellulose) (HPC)): 106 % of control
T/C [11]: 113 % of control
T/C [12]: 100 % of control

Brc1cc(Br)c(I)c(Br)c1
T/C (dose: 100.0 mg/kg/injection, schedule: Q04DX003 (ip), vehicle: other): 95 % of control
T/C (dose: 200.0 mg/kg/injection, schedule: Q04DX003 (ip), vehicle: other): 100 % of control
T/C (dose: 400.0 mg/kg/injection, schedule: Q04DX003 (ip), vehicle: other): 100 % of control

CN(C)c1ccc([N+]([O-])=Nc2ccc3ccccc3c2)cc1
T/C (dose: 30.0 mg/kg/injection, schedule: Q01DX005 (ip), vehicle: saline with Tween-80): 96 % of control
T/C [2]: 87 % of control and 96 % of control
T/C [3]: 89 % of control
T/C [4]: 90 % of control

CCc1c(OC)c(C#N)c2n(C)c3cc(C)c(C)cc3n2c1=O
T/C [2]: 87 % of control
T/C [3]: 90 % of control
T/C [4]: 93 % of control

c1ccc2c(c1)C1c3cccc[n+]3C2C2C1CC1C3c4ccccc4C(C12)[n+]1ccccc13 (configuration not stated)
T/C (dose: 1.56 mg/kg/injection, schedule: Q01DX005 (ip), vehicle: saline with Tween-80): 102 % of control
T/C (dose: 3.13 mg/kg/injection, schedule: Q01DX005 (ip), vehicle: saline with Tween-80): 102 % of control
T/C (dose: 6.25 mg/kg/injection, schedule: Q01DX005 (ip), vehicle: saline with Tween-80): 104 % of control and 94 % of control

O=NNc1ccc(Cl)nc1
T/C (dose: 3.12 mg/kg/injection, schedule: Q01DX009 (ip), vehicle: saline): 109 % of control
T/C (dose: 6.25 mg/kg/injection, schedule: Q01DX009 (ip), vehicle: saline): 110 % of control
T/C (dose: 12.5 mg/kg/injection, schedule: Q01DX009 (ip), vehicle: saline): 106 % of control
T/C (dose: 25.0 mg/kg/injection, schedule: Q01DX009 (ip), vehicle: saline): 106 % of control
T/C (dose: 50.0 mg/kg/injection, schedule: Q01DX009 (ip), vehicle: saline): 107 % of control

COc1ccc(C(C)c2cc(N=O)c(OC)cc2O)cc1 (configuration not stated)
T/C (dose: 12.5 mg/kg/injection, schedule: Q01DX005 (ip), vehicle: saline with Tween-80): 91 % of control
T/C (dose: 25.0 mg/kg/injection, schedule: Q01DX005 (ip), vehicle: saline with Tween-80): 94 % of control
T/C [1]: 92 % of control and 96 % of control

COc1cccc2c1C(=O)c1c(O)c3c(c(O)c1C2=O)C[C@@](O)(C(C)=O)C[C@@H]3OC1CC(O)C(O)C(C)O1 (some centres not stated)
T/C (dose: 12.5 mg/kg/injection, schedule: Q04DX003 (ip), vehicle: water): 123 % of control
T/C (dose: 100.0 mg/kg/injection, schedule: Q04DX003 (ip), vehicle: water): 161 % of control
T/C (dose: 200.0 mg/kg/injection, schedule: Q04DX003 (ip), vehicle: water): 192 % of control

COC(=O)c1cc(C)cc(O)c1C
T/C [13]: 102 % of control
T/C [14]: 101 % of control
T/C [15]: 99 % of control
T/C [16]: 101 % of control

Clc1ccc2c(c1)[N+](=c1ccc3nc4cc(Cl)ccc4sc-3c1)c1ccccc1S2.[Cl][Cu][Cl]
T/C [8]: 95 % of control
T/C [9]: 91 % of control
T/C [10]: 88 % of control

O=CN(Nc1ccccc1)C(=O)Nc1ccc(Cl)c(Cl)c1
T/C (dose: 100.0 mg/kg/injection, schedule: Q04DX002 (ip), vehicle: Klucel (hydroxypropylcellulose) (HPC)): 96 % of control
T/C (dose: 200.0 mg/kg/injection, schedule: Q04DX002 (ip), vehicle: Klucel (hydroxypropylcellulose) (HPC)): 97 % of control
T/C (dose: 400.0 mg/kg/injection, schedule: Q04DX002 (ip), vehicle: Klucel (hydroxypropylcellulose) (HPC)): 104 % of control

CC1=CC(O/C=C2\C(=O)OC3c4ccccc4CC23)OC1=O (configuration not stated)
T/C (dose: 50.0 mg/kg/injection, schedule: Q01DX009 (ip), vehicle: suspension in saline): 101 % of control
T/C (dose: 100.0 mg/kg/injection, schedule: Q01DX009 (ip), vehicle: suspension in saline): 108 % of control
T/C (dose: 200.0 mg/kg/injection, schedule: Q01DX009 (ip), vehicle: suspension in saline): 92 % of control

CCOC(=O)N1CCN(CCCCCOc2ccccc2C2CCCCC2)CC1
T/C [13]: 110 % of control
T/C [14]: 108 % of control
T/C [15]: 124 % of control
T/C [16]: 115 % of control

Cc1ccc(SNc2ccccc2)cc1
T/C (dose: 50.0 mg/kg/injection, schedule: Q04DX003 (ip), vehicle: saline with Tween-80): 96 % of control
T/C [12]: 96 % of control

NC(N)=NS(=O)(=O)c1ccc(N=Cc2c3ccccc3nc3cc(Cl)ccc23)cc1
T/C [2]: 91 % of control
T/C [3]: 91 % of control
T/C [4]: 91 % of control

Cc1nc2c(Br)cc(Br)cc2c(=O)n1CC(=O)NNC(N)=S
T/C [11]: 95 % of control
T/C (dose: 100.0 mg/kg/injection, schedule: Q01DX009 (ip), vehicle: Klucel (hydroxypropylcellulose) (HPC)): 104 % of control
T/C (dose: 200.0 mg/kg/injection, schedule: Q01DX009 (ip), vehicle: Klucel (hydroxypropylcellulose) (HPC)): 101 % of control

C/C(N)=N/OCc1ccccc1
T/C [17]: 98 % of control
T/C [5]: 92 % of control
T/C [18]: 102 % of control
T/C [6]: 107 % of control
T/C [19]: 102 % of control
T/C [7]: 102 % of control

CNC(=O)OCc1ccc(NCCN(C)C)c2c(=O)c3cc(O)ccc3oc12
T/C (dose: 0.38 mg/kg/injection, schedule: Q01DX005 (ip), vehicle: Klucel (hydroxypropylcellulose) (HPC)): 97 % of control
T/C (dose: 0.75 mg/kg/injection, schedule: Q01DX005 (ip), vehicle: Klucel (hydroxypropylcellulose) (HPC)): 106 % of control
T/C (dose: 1.5 mg/kg/injection, schedule: Q01DX005 (ip), vehicle: Klucel (hydroxypropylcellulose) (HPC)): 113 % of control
T/C (dose: 3.0 mg/kg/injection, schedule: Q01DX005 (ip), vehicle: Klucel (hydroxypropylcellulose) (HPC)): 124 % of control
T/C (dose: 6.0 mg/kg/injection, schedule: Q01DX005 (ip), vehicle: Klucel (hydroxypropylcellulose) (HPC)): 120 % of control

CN1CCC(/C(=N/O)c2ccccc2)(c2ccccc2)CC1
T/C [17]: 98 % of control
T/C [18]: 91 % of control
T/C [19]: 91 % of control
